Results from PMC10080691, “Enzyme-Responsive Double-Locked Photodynamic Molecular Beacon for Targeted Photodynamic Anticancer Therapy” (Journal of the American Chemical Society, 2023).

Assays:
MMP-2 and cathepsin B = assay: Dual-enzyme (sequential MMP-2 then cathepsin B) activation: fluorescence, singlet oxygen, LC-MS; type: biochemical; conditions: for singlet oxygen generation (DPBF decay at 417 nm) after enzyme treatment: DPBF 30 μM, sequential MMP-2 and cathepsin B, irradiation λ > 610 nm, 300 s
Experimental: To study the dual-enzyme-activated effect, PMB 1 was first treated with MMP-2 (2 μg mL^–1) in PBS for 6 h, followed by the addition of NaOAc, EDTA, and GSH and adjustment of the pH to 5.0 to create a working environment for cathepsin B. This enzyme (1 unit mL^–1) was then added, and the mixture was stirred for a further 19 h. […] The intensity at 25 h was almost the same as that at 24 h, which could be regarded as full activation, arising from the complete separation of the two components. In contrast, the absorption and fluorescence spectra of 14 remained unchanged upon this treatment (Figure S10).
The fluorescence recovery was then determined for 1 under the aforementioned conditions, assuming that the fluorescence intensity of 8 at the same concentration in the same medium was the maximum fluorescence intensity that could be recovered. The results are depicted in Figure 3c. […] In addition, we also determined the corresponding on/off ratios by dividing the fluorescence intensity at 25 h by the initial fluorescence intensity under each of these conditions. […] For 14, the ratios were below 1.5 under all the conditions, showing that the effect of the two enzymes was negligible for this conjugate.
Apart from the activation in fluorescence emission, the activation of 1 in singlet oxygen generation was also studied. PMB 1 (1 μM) was treated with MMP-2 and/or cathepsin B as described above and then mixed with DPBF (30 μM). The absorption spectra of these mixtures were monitored during light irradiation (λ > 610 nm) over a period of 300 s. […] The decrease in absorbance became more substantial for 1 after the treatment with both enzymes. As expected, the changes were negligible for 14 under all conditions (Figure S12).
To study the dual-enzyme-activated effect, PMB 1 was treated with MMP-2 (for 6 h) and cathepsin B (for 19 h) sequentially as mentioned above. […]
where W and Iabs are the DPBF photobleaching rate and the rate of light absorption, […]
MMP-2 and Cathepsin B-Responsive Spectroscopic Studies
Compound 1 or 14 was dissolved in DMF to form a 1 mM stock solution, which was then diluted to 1 μM with PBS at pH 7.4 or buffer solution (pH 5.0, 25 mM NaOAc, 1 mM EDTA, 500 μM GSH), both in the presence of 0.1% Tween 80 (v/v) . For the MMP-2-responsive studies, the solutions in PBS were treated with MMP-2 (2 μg mL-1). For the cathepsin B-responsive studies, the solutions in buffer solution were treated with cathepsin B (1 unit mL-1). For the dual-enzyme-responsive studies, the solutions in PBS were first treated with MMP-2 (2 μg mL-1) for 6 h, followed by the treatment with cathepsin B (1 unit mL-1) after the addition of NaOAc, EDTA, and GSH and adjustment of the pH, turning into the conditions of the buffer solution.
All of the solutions were stirred continuously at 37 °C. The ir electronic absorption and fluorescence spectra were monitored over a period of 25 h.
MMP-2- and Cathepsin B-Responsive Singlet Oxygen Generation Studies […]
halogen lamp after passing through a water tank for cooling and a color glass filter (Newport) cut-on at λ = 610 nm. The decay of DPBF at λ = 417 nm was monitored with a spectrophotometer during the irradiation period. […]
According to the above procedure, 1 and 14 were treated with MMP-2 and cathepsin B. After a period of 25 h, MeOH was added into the solutions for precipitating the enzymes. After filtration, the filtrate was analyzed by LC-MS using the aforementioned conditions. […]

skin of nude mice = assay: In vivo photodynamic effect on skin; conditions: intravenous 20 nmol
Experimental: The mice were first intravenously injected with either 1 or 6 (20 nmol) in 200 μL of distilled water containing 3% DMSO and 0.5% Tween 80 (v/v). The whole-body fluorescence images of the mice were monitored using an infrared imaging system over a period of 24 h.
At 6 h post-injection of 1 or 6, the mice were irradiated with the aforementioned laser source (680 nm, 0.3 W cm^–2) on a region of the skin (marked in Figure 8d) for 10 min, which were the conditions used for in vivo PDT as described above. The appearance of the irradiated region was then examined after 24 h. […] The skin tissues of these mice were then harvested and examined using the TUNEL assay.
Further evidence was obtained by the H&E staining of these skin tissues.
Female Balb/c nude mice (20–25 g) were injected with a solution of 1 or 6 (20 nmol) in 200
μL of distilled water containing 3% DMSO and 0.5% Tween 80 (v/v) through the tail vein.
vivo fluorescence imaging was performed before and after the injection at different time points
up to 24 h with an Odyssey infrared imaging system (excitation wavelength = 680 nm, emission
wavelength ≥ 700 nm). The images were digitized and analyzed using an Odyssey imaging
Three mice were used for each comp ound. To study the
photodynamic effect of these two compounds on the skin of the mice, a region of the skin was
illuminated with a diode laser (Biolitec Ceralas) at 680 nm operated at 0.24 W at 6 h post -
injection of these compounds. Illumination on a circu lar spot with a diameter of 1.0 cm (fluence
rate = 0.3 W cm-2) for 10 min led to a total fluence of 180 J cm–2. After 24 h, the mice were
sacrificed, and then the skin tissues were harvested. They were fixed with 4%
paraformaldehyde, dehydrated in an alcohol series, mixed with solutions of xylene and paraffin,
and then embedded in paraffin. The tissue sections were prepared by a Leica RM2235
microtome. After the H&E staining, the tissues were examined with a Nikon Eclipse Ni-E
upright fluorescence microscope. For the TUNEL staining assay, the skin tissues were dewaxed
and rehydrated in an alcohol series and then incubated with a Proteinase K solution (20 μg mL-
1) at room temperature for 30 min. After being rinsed with PBS three times, the tissue slides
were stained with 50 μL of Nucleotide Mix (a mixture of terminal deoxynucleotidyl transferase
and cyanine 3-labeled deoxyuridine triphosphate) of the one -step TUNEL assay kit (Beyotime,
Shanghai, China), and then the nuclei were stained with Hochest 33342 (10 μM) for 1 h at
room temperature. After being rinsed with PBS for three times, the tissue slides were examined
with a Zeiss LSM 880 NLO laser scanning microscope equipped with two solid-state 405 and
561 nm lasers. Hoechst 33342 was excited at 405 nm and its fluorescence was monitored at
410−500 nm, while the TUNEL staining cyanine 3 dye was excited at 561 nm and its
fluorescence was monitored at 570−620 nm.

[1] = with laser irradiation (680 nm, 0.3 W cm-2, 10 min), 24 h after

Row | Structure (SMILES) | singlet oxygen generation (DPBF decay at 417 nm) after enzyme treatment (MMP-2 and cathepsin B; 1 μM) | on/off ratio (fluorescence intensity at 25 h / initial intensity) (MMP-2 and cathepsin B; 1 μM, MMP-2 6 h then cathepsin B 19 h, 37 °C) | fluorescence recovery (MMP-2 and cathepsin B; 1 μM, MMP-2 (2 μg mL-1) in PBS 6 h, then cathepsin B (1 unit mL-1) pH 5.0 buffer 19 h, 37 °C, relative to 8) [%] | LC-MS signal of intact compound after enzyme treatment (MMP-2 and cathepsin B; MMP-2 6 h then cathepsin B 19 h, fragments 17 and 18 formed) | appearance of irradiated skin region after 24 h (skin of nude mice; laser 680 nm, 0.3 W cm-2, 10 min at 6 h post-injection) | H&E staining of skin tissue (skin of nude mice; [1]) | TUNEL assay of skin tissue (skin of nude mice; [1]) | H&E staining of skin tissue (skin of nude mice; without laser irradiation) | TUNEL assay of skin tissue (fluorescence intensity) (skin of nude mice; without laser irradiation)
1 | CCN(CC)c1ccc2nc3ccc(/N=N/c4ccc(N(C)CCCNC(=O)OC[C@@H]5[C@@H]6CCc7nnn(CC(=O)NCCCC[C@@H]8NC(=O)CNC(=O)[C@H](CCCCN)NC(=O)[C@H](CCCNC(=N)N)NC(=O)[C@H](C(C)C)NC(=O)CNC(=O)[C@H](CC(C)C)NC(=O)[C@@H]9CCCN9C(=O)[C@H](CCCCN)NC(=O)[C@@H](N)CSCc9cc(COc%10ccc(C%11=C%12C(C)=C(I)C(/C=C/c%13ccc(OCCOCCOCCOC)cc%13)=[N+]%12[B-](F)(F)n%12c(/C=C/c%13ccc(OCCOCCOCCOC)cc%13)c(I)c(C)c%12%11)cc%10)cc(c9)CSC[C@@H](C(N)=O)NC(=O)[C@H](CCCCN)NC(=O)[C@H](CCCCN)NC(=O)CNC(=O)[C@H](CC(C)C)NC(=O)[C@H](Cc9ccccc9)NC(=O)CNC(=O)[C@H](CCCCN)NC(=O)CNC8=O)c7CC[C@@H]65)cc4)cc3[n+](-c3ccccc3)c2c1 [compound 1] | turned on remarkably | 16 | 85 | disappearance of the signal of 1 | no noticeable change | virtually intact | negligible | virtually intact | negligible
2 | CCN(CC)c1ccc2nc3ccc(/N=N/c4ccc(N(C)CCCNC(=O)OC[C@@H]5[C@@H]6CCc7nnn(CC(=O)NCCCC[C@@H]8NC(=O)CNC(=O)[C@H](CCCCN)NC(=O)CNC(=O)CNC(=O)CNC(=O)CNC(=O)CNC(=O)[C@H](CCCCN)NC(=O)[C@@H](N)CSCc9cc(COc%10ccc(C%11=C%12C(C)=C(I)C(/C=C/c%13ccc(OCCOCCOCCOC)cc%13)=[N+]%12[B-](F)(F)n%12c(/C=C/c%13ccc(OCCOCCOCCOC)cc%13)c(I)c(C)c%12%11)cc%10)cc(c9)CSC[C@@H](C(N)=O)NC(=O)[C@H](CCCCN)NC(=O)[C@H](CCCCN)NC(=O)CNC(=O)CNC(=O)CNC(=O)CNC(=O)[C@H](CCCCN)NC(=O)CNC8=O)c7CC[C@@H]65)cc4)cc3[n+](-c3ccccc3)c2c1 [compound 14] | negligible |  |  |  |  |  |  |  | 
